Test results published in PubChem BioAssay AID1888 (NMMLSC, 2009).
pEC50, pKi: −log10 of the molar value. The source made the active and inactive calls. No rule for the calls is given here.

Target: Regulator of G-protein signaling 16 (Homo sapiens) (UniProt O15492)
Test: RGS16-Galphao interaction modulators, dose response, biochemical, bead-based flow cytometry, multiplex (AID 1888)
Conditions: RGS16-Galphao binding

Regulator of G-protein signaling 16 (Homo sapiens), sequence (O15492 whole entry, looked up): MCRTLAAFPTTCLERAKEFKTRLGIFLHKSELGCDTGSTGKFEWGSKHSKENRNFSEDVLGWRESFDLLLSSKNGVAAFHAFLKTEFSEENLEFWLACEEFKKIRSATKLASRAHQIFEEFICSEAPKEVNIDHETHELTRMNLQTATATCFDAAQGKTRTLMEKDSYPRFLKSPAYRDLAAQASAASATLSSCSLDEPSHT

For `CCOC(=O)N=Nc1c(O)n(C)c2ccccc12`, the EC50 was > 30 µM (inactive).
In the case of `CCOC(=O)C1=C(C)NC(C)=C(C(=O)OCCNC(=O)c2cccnc2)C1c1cccc([N+](=O)[O-])c1` (configuration not stated), the EC50 was > 30 µM (inactive).
With `COc1ccc(Br)cc1/C=N/Nc1cccc(C(=O)O)c1` the EC50 was > 30 µM (inactive).
In the case of `O=C1CCCC2=C1C(c1cccs1)n1ncnc1N2` (configuration not stated), the EC50 was > 30 µM (inactive).
`CCOC(=O)/C(C(=O)Nc1ccccc1Cl)=C1/NC(C)(C)Cc2ccccc21` was tested, and the EC50 was “inactive”.
For `CC(C)Sc1nc2ccc(N3C(=O)C4CCCCC4C3=O)cc2s1` (configuration not stated), the EC50 was > 30 µM (inactive).
For `O=c1[nH]c(=S)n(Cc2ccco2)c(O)c1C=NCc1cccs1`, the EC50 was > 30 µM (inactive).

In order of rising pEC50:
1. CN(C)[C@@H]1C(=O)C(C(=O)NCN2CCCC2)=C(O)[C@@]2(O)C(=O)C3=C(O)c4c(O)cccc4[C@@](C)(O)C3CC12 (some centres not stated)  5.14
2. NS(=O)(=O)c1ccc(N/N=C/c2ccc(O)c(O)c2O)c([N+](=O)[O-])c1  5.78

Same assay, conditions: RGS16-Galphao binding, measured here: Ki for RGS16-Galphao binding

In order of falling pKi:
1. CN1CCN(C2=C(Cl)C(=O)C(c3cnc(N4CCCCC4)s3)=C(Cl)C2=O)CC1  6.82
2. O=c1c2ccccc2sn1-c1cc(S(=O)(=O)N2CCOCC2)ccc1N1CCOCC1  6.25
3. CCC(=O)NC1=C(Cl)C(=O)C(NC(=O)CC)=C(Cl)C1=O  6.17
4. Cc1ccc(NC(=O)Cn2sc3nc(C)cc(C)c3c2=O)c(Cl)c1  6.15
5. O=C(NCCCN1CCOCC1)c1sc2cc([N+](=O)[O-])ccc2c1Cl  6.11
6. Cc1cccc(N2CCN(C(=O)Cn3sc4nc(C)cc(C)c4c3=O)CC2C)c1 (configuration not stated)  5.98
7. O=[N+]([O-])c1ccc(Sc2cccc[n+]2[O-])c2nonc12  5.97
8. CN(C)S(=O)(=O)c1cccc(-n2sc3ccccc3c2=O)c1  5.91
9. Cc1[nH]n(-c2ccccc2)c(=S)c1C=Nc1cccc([N+](=O)[O-])c1  5.89
10. NS(=O)(=O)c1ccc(N/N=C/c2ccc(O)c(O)c2O)c([N+](=O)[O-])c1  5.87
11. O=C1C(Cl)=C(N2CCCCC2)C(=O)C(Cl)=C1c1cnc(N2CCCCC2)s1  5.87
12. O=C(O)C[C@@H]1C(=O)O[C@@H]2C(COC(=O)c3cc(O)c(O)c(O)c3)O[C@@H](OC(=O)c3cc(O)c(O)c(O)c3)[C@@H](OC(=O)c3cc(O)c(O)c4c3[C@H]1[C@H](O)C(=O)O4)[C@H]2OC(=O)c1cc(O)c(O)c(O)c1 (some centres not stated)  5.87
13. O=c1c2ccccc2sn1-c1ccccc1  5.86
14. Cc1cc(C)c2c(=O)n(CC(=O)Nc3cccc(F)c3)sc2n1  5.86
15. Cc1cc(C)c2c(=O)n(CC(=O)Nc3ccc(Cl)cc3)sc2n1  5.85
16. CCCNC(=O)Cn1sc2nc(C)cc(C)c2c1=O  5.85
17. COc1ccc(OC)c(CCNC(=O)Cn2sc3nc(C)cc(C)c3c2=O)c1  5.84
18. CCOC(=O)C1CCCN(C(=O)Cn2sc3nc(C)cc(C)c3c2=O)C1 (configuration not stated)  5.82
19. CC(=O)N(O)CCCCCNC(=O)CCC(=O)N(O)CCCCCNC(=O)CCC(=O)N(O)CCCCCN  5.82
20. Cc1ccc(-n2sc3ccccc3c2=O)cc1S(=O)(=O)N1CCCCC1  5.79
21. O=c1c2ccccc2sn1-c1cc(S(=O)(=O)N2CCOCC2)ccc1N1CCCC1  5.74
22. O=C1CCC(=O)N(O)CCCCCNC(=O)CCC(=O)N(O)CCCCCNC(=O)CCC(=O)N(O)CCCCCN1  5.74
23. O=c1c2ccccc2sn1-c1ccc(S(=O)(=O)N2CCCC2)cc1  5.71
24. CC(NC(=O)c1sc2cc([N+](=O)[O-])ccc2c1Cl)C(C)(C)C (configuration not stated)  5.70
25. Nc1c(C(=O)NCC2CCCO2)sc2nc3c(c(-c4ccco4)c12)CC/C3=C\c1ccco1 (configuration not stated)  5.66
26. COc1ccc(C2=CC(=O)C=CC2=O)cc1  5.52
27. O=C(COc1ccccc1C(=O)N/N=C\c1ccc(O)c(O)c1)N/N=C/c1ccc(O)c(O)c1  5.49
28. CN(C)c1ncc(C2=C(Cl)C(=O)C(N3CCCC3)=C(Cl)C2=O)s1  5.39
29. CCN(CC)S(=O)(=O)c1cccc(C(=O)N/N=C/c2ccc(O)c(O)c2O)c1  5.38
30. COCCCNC(=O)c1ccc2c3c(onc13)-c1ccccc1C2=O  5.34
31. O=C(OCC1O[C@@H](OC(=O)c2cc(O)c(O)c(O)c2)[C@@H](OC(=O)c2cc(O)c(O)c(O)c2)[C@@H](OC(=O)c2cc(O)c(O)c(O)c2)[C@@H]1OC(=O)c1cc(O)c(O)c(O)c1)c1cc(O)c(O)c(O)c1 (some centres not stated)  5.33
32. COC(=O)CCC(=O)Nc1sc(C)c(C)c1C(N)=O  5.27
33. CCN1/C(=C/C=C/C=C/c2sc3ccccc3[n+]2CC)Sc2ccccc21  5.27
34. O=C(O[C@@H]1OC2COC(=O)c3cc(O)c(O)c(O)c3-c3c(cc(O)c(O)c3O)C(=O)O[C@@H]([C@H]1O)[C@@H]2O)c1cc(O)c(O)c(O)c1  5.27
35. CN(C)[C@@H]1C(=O)C(C(=O)NCN2CCCC2)=C(O)[C@@]2(O)C(=O)C3=C(O)c4c(O)cccc4[C@@](C)(O)C3CC12 (some centres not stated)  5.23
36. NS(=O)(=O)c1ccc(CNC(=O)/C=C/c2ccco2)cc1  5.21
37. Cc1ccccc1-n1c(-c2ccncc2)n[nH]c1=S  5.20
38. CN=c1scc(C)n1/N=C/c1ccc(O)c(O)c1O  5.15
39. Cc1[nH]n(-c2ccccc2)c(=S)c1C=NCCCN=Cc1c(C)[nH]n(-c2ccccc2)c1=S  5.15
40. Cc1cc(Cl)ccc1N=c1ssnc1Cl  5.14
41. CCN1/C(=C/C(C)=C/c2sc3ccccc3[n+]2CC)Sc2ccccc21  5.11
42. CC(=O)OCCCNc1cc(Sc2nc3ccccc3s2)c2nonc2c1[N+](=O)[O-]  5.07
43. O=C(Cc1csc(N2CCOCC2)n1)N/N=C/c1ccc(O)c(O)c1O  5.04
44. CCC(=O)NC(c1ccc(C)cc1)c1cc([N+](=O)[O-])c2cccnc2c1O (configuration not stated)  5.02
45. CC1(C)OC(=O)C(=Cc2ccc(-c3ccc(S(N)(=O)=O)cc3)o2)C(=O)O1  5.02
46. CCOC(=O)c1sc(NC(=O)CSc2nnc(Cc3ccccc3)o2)c(C#N)c1C  4.96
47. CC(=O)N1CC[n+]2c(-c3ccc([N+](=O)[O-])cc3)csc21  4.96
48. CCOc1ccccc1-c1c2cc(O)c(=O)cc-2oc2cc(O)c(O)cc12  4.95
49. Cc1ccccc1-n1sc2cc(F)ccc2c1=O  4.89
50. O=C1OCC2OC(O)C(O)C(O)C2OC(=O)c2cc(O)c(O)c(O)c2-c2c(O)c(O)c3oc(=O)c4c(c(O)c(O)c5oc(=O)c2c3c54)-c2c1cc(O)c(O)c2O (configuration not stated)  4.87
51. CCN=c1scc(C)n1/N=C/c1ccc(O)c(O)c1O  4.82
52. C/C(=N/NC(=O)c1cc(O)c(O)c(O)c1)c1ccc([N+](=O)[O-])cc1  4.80
53. CCNc1ccc2noc3c2c1C(=O)c1ccccc1-3  4.63
